# ChEMBL document CHEMBL1154464, “Constrained analogues of tocainide as potent skeletal muscle sodium channel blockers towards the development of antimyotonic agents” (Eur J Med Chem, 2008)
# Columns and labels:
# [1] = Blockade of Nav1.4 sodium channel in frog semitendinosus muscle fibres assessed as tonic block elicited by infrequent depolarizing pulses at a frequency of 0.3 Hz by vaseline-gap voltage clamp method; assay type: tissue-based, Pelophylax lessonae
# [2] = Blockade of Nav1.4 sodium channel in frog semitendinosus muscle fibres assessed as phasic block at 10 Hz stimulation frequency by vaseline-gap voltage clamp method; assay type: tissue-based, Pelophylax lessonae
# Pelophylax lessonae = test: Ratio of IC50 for tonic blockade of Nav1.4 sodium channel to phasic blockade of Nav1.4 sodium channel in frog semitendinosus muscle fibres; assay type: tissue-based
IC50 [1],IC50 [2],SMILES,Ratio IC50 (Pelophylax lessonae)
31.6 µM,2.4 µM,Cc1cccc(C)c1NC(=O)C1CN(Cc2ccccc2)CCN1 (configuration not stated),13
581 µM,273 µM,Cc1cccc(C)c1NC(=O)C(C)N (configuration not stated) [TOCAINIDE],–
38.5 µM,4.5 µM,Cc1cccc(C)c1NC(=O)C1CCCN(Cc2ccccc2)C1 (configuration not stated),–
